Results as given in patent US20240115416A1, “SEGMENTED EVA INTRAVAGINAL RINGS” (priority 2019, published 2024).

Assay: Pharmacokinetics after single intravenous bolus of E2 and P in sheep
Format: in vivo
Conditions: Dorset crossbred, plasma, E2 160 μg, P 10 mg, mean; for AUC(0-inf): n = 2; for clearance: n = 2, read-out: CL, total body clearance (converted); for half-life: n = 2, read-out: T1/2, terminal half-life (converted); for Vd: n = 2, read-out: Vz, volume of distribution based on terminal elimination phase
From the text: Standard noncompartmental PK analysis methods were used.

C[C@]12CC[C@@H]3c4ccc(O)cc4CC[C@H]3[C@@H]1CC[C@@H]2O [E2, 17β-estradiol]
AUC(0-inf): 1.79 ng·h/mL
clearance: 1490 mL/min
half-life: 2.22 h
Vd: 287 L

CC(=O)[C@H]1CC[C@H]2[C@@H]3CCC4=CC(=O)CC[C@]4(C)[C@H]3CC[C@]12C [P, progesterone]
AUC(0-inf): 20 ng·h/mL
clearance: 8330 mL/min
half-life: 2.75 h
Vd: 1980 L
